Assay results: patent US20090203062A1, “Method For Identifying And/Or Quantifying Anti-Infective Compounds” (priority 2005, published 2009)

Tests used:
Klebsiella pneumoniae [1] = assay: Klebsiella pneumoniae murine pulmonary infection model; type: in vivo; conditions: 24 h post-infection, female Balb/cN mice
Procedure: Klebsiella pulmonary infection model was performed by intranasal instillation of 7-8 weeks old female Balb/cN with 20 μl containing […]. Compound or cefotaxime were injected intraperitoneally every 6 hours from the time of infection at the indicated doses. In vivo efficacy was assessed by measuring colony forming units (CFU) loads in the lungs at 24 h hours. Data analysis was performed using GraphPad Software Inc, San Diego, Calif., USA. Lane 1 is the initial load at time zero of the infection. Lane 2 is the load at 24 hours post-infection of mice treated with the vehicle only.

Klebsiella pneumoniae [2] = conditions: Tetrahymena pyriformis present; compared with the antibiotic activity IC50; FIG. 9
Source text: Preparation of SM no glucose (SM-) and Tetrahymena Medium is as described in example 1. […] Strains description Same Klebsiella pneumoniae strain is used as in example 1. […] Preparation of Tetrahymena pyriformis (Tp): The same Tp is used as in example 1. The day of the screen, resuspend the Tp cells in SM- and distribute Tp cells in the 384 well plates. […] Liquid dispenser for medium distribution Fill the same number of test plates as above with SM- with the liquid dispenser plate filler. (To test the antibiotic activity of the compounds). […] Description of the mother plate of compounds Each mother plate containing 24 columns of compounds is composed of 4 control columns (1, 12, 13 and 24) of DMSO and 320 wells of compounds. The DMSO columns have to be arranged according to the library. […] Transfer of library compounds with the 384 pin replicator. A test plate for quantifying anti-virulence activity contains Tp solution. A test plate for quantifying antibiotic activity contains SM-. […]
Tp, Klebsiella pneumoniae, compound are prepared as described in example 2 and incubated in a matrix containing 384 wells (12×24) wells at 35° C. in humidity saturated incubator. […] Mutations or compound affecting pathogenicity could be assessed in terms of phenotype strength and potency, respectively with decreasing concentration of Tp.

For `C=CCSc1nnc(C)c(O)n1` [3-(allylsulfanyl)-5-hydroxy-6-methyl-1,2,4-triazine], the “reduction of CFU load in the lungs” value (Klebsiella pneumoniae [1]; 225 mg/kg/day intraperitoneally every 6 hours) was 4 Log.

`COc1cc(Cc2cnc(N)nc2N)cc(OC)c1OC` [trimethoprim] was tested, and the “concentration at which the avirulence assay detected the antibiotic, lower than the IC50 of the antibiotic (sub-MIC effect)” value (Klebsiella pneumoniae [2]) was 2 Log.

For `CO/N=C(\C(=O)N[C@@H]1C(=O)N2C(C(=O)O)=C(COC(C)=O)CS[C@H]12)c1csc(N)n1` [cefotaxime], the “reduction of CFU load in the lungs” value (Klebsiella pneumoniae [1]; 37.5 mg/kg/day intraperitoneally every 6 hours) was 4 Log.
